pEC50, pKi: −log10 of the molar value. Where two headings read alike, the source gives them in different places.
Experiments:
PI3Kα = PI3Kα (Homo sapiens, UniProt P42336); test: PI3K binding assay (lipid kinase reaction, ADP-Glo), PI3K alpha; format: biochemical
Experimental: (§1) Reactions are carried out using the following conditions for each PI3K isoform as in Table 5.
(§2) All reactions are carried out at room temperature. […] The reaction is started by the addition of 2 μL ATP/MgCl2. The kinase reaction buffer contains 50 mM HEPES, 50 mM NaCl 3 mM MgCl2, 0.01% BSA, 1% DMSO, and enzyme and substrate concentrations as indicated in the above table. The reaction is stopped by the addition of 10 μL ADP-Glo reagent. Plates are read in a Perkin Elmer Envision system using luminescence mode. 10 point dose response curves are generated for each test compound. Ki values for each compound are determined using the Morrison Equation.

PI3Kβ = PI3Kβ (Homo sapiens, UniProt P42338); test: PI3K binding assay (lipid kinase reaction, ADP-Glo), PI3K beta; format: biochemical; details: Table 2A; first value of cell (ADP-Glo, Example 901)
Experimental: as §1, §2

PI3Kδ = PI3Kδ (Homo sapiens, UniProt O00329); test: PI3K binding assay (lipid kinase reaction, ADP-Glo), PI3K delta; format: biochemical
Experimental: as §1, §2

PI3Kγ = PI3Kγ (Homo sapiens, UniProt P48736); test: PI3K binding assay (lipid kinase reaction, ADP-Glo), PI3K gamma; format: biochemical; details: Table 2A; first value of cell (ADP-Glo, Example 901)
Experimental: as §1, §2

P-PRAS40 SW48(E545K) = test: Inhibition of P-PRAS40 in SW48 isogenic cells, PI3Kα mutant E545K; format: cell-based; details: for pEC50: SW48, 24 hours of compound treatment, read-out: P-PRAS40 SW48(E545K) EC50
Experimental: (§3) All statistics were performed using KaleidaGraph Software (version 4.1.3). A Student t-Test was performed using unpaired data with equal variance to compare activity against mutant cells and wild-type cells. P<0.05 is considered to be significant.
(§4) The following assays are intended for determining the cellular potency and mutant selectivity of small molecule PI3Kα inhibitors. […] Mutant selectivity of PI3Kα inhibitors is determined by EC50 potency ratios in the WT vs. E545K cell lines and WT vs. H1047R cell lines.
(§5) The three cell lines (WT, E545K, and H1047R) are plated and assayed in parallel. The following day, test compounds are serially diluted in dimethyl sulfoxide (DMSO) and added to cells (final DMSO concentration 0.5%). […] Cell lysates are added to assay plates pre-coated with antibodies against phosphorylated PRAS40. Phosphorylated PRAS40 in samples are allowed to bind to the capture antibodies overnight at 4° C. The detection antibody (anti-total PRAS40, labeled with an electrochemiluminescent SULFO-TAG) is added to the bound lysate and incubated for 1 hour at room temperature. The MSD Read Buffer is added such that when a voltage is applied to the plate electrodes, the labels bound to the electrode surface emit light. The MSD Sector Instrument measures the intensity of the light, and quantitatively measures the amount of phosphor-PRAS40 in the sample. Percent inhibition of PRAS40 phosphorylation by varying concentrations of test compounds is calculated relative to untreated controls. EC50 values are calculated using the 4 parameter logistic nonlinear regression dose-response model.

P-PRAS40 SW48(H1047R) = test: Inhibition of P-PRAS40 in SW48 isogenic cells, PI3Kα mutant H1047R; format: cell-based; details: for pEC50: SW48, 24 hours of compound treatment, read-out: P-PRAS40 SW48(H1047R) EC50
Experimental: as §3, §4, §5

P-PRAS40 SW48(parental) = test: Inhibition of P-PRAS40 in SW48 isogenic cells, PI3Kα wild-type (parental); details: Homo sapiens, SW48, 24 h
Experimental: The three cell lines (WT, E545K, and H1047R) are plated and assayed in parallel. The following day, test compounds are serially diluted in dimethyl sulfoxide (DMSO) and added to cells (final DMSO concentration 0.5%). Cells are then incubated for 24 hours at 37° C. and 5% CO2. […] Cell lysates are added to assay plates pre-coated with antibodies against phosphorylated PRAS40. Phosphorylated PRAS40 in samples are allowed to bind to the capture antibodies overnight at 4° C. The detection antibody (anti-total PRAS40, labeled with an electrochemiluminescent SULFO-TAG) is added to the bound lysate and incubated for 1 hour at room temperature. The MSD Read Buffer is added such that when a voltage is applied to the plate electrodes, the labels bound to the electrode surface emit light. The MSD Sector Instrument measures the intensity of the light, and quantitatively measures the amount of phosphor-PRAS40 in the sample. Percent inhibition of PRAS40 phosphorylation by varying concentrations of test compounds is calculated relative to untreated controls. EC50 values are calculated using the 4 parameter logistic nonlinear regression dose-response model.

[1] = tested on: KPL4 cells (PI3Kα mutant H1047R); test: In vitro cell viability assay (Cell Titer-Glo), KPL4; details: KPL4, 96 h, read-out: KPL4 antiproliferative EC50 (μM)
Experimental: Cells were seeded (1,500 per well) in 384-well plates for 16 h. On day 2, nine serial 1:3 compound dilutions were made in DMSO in a 96-well plate. The compounds were then further diluted into growth media using a Rapidplate robot (Zymark Corp.). The diluted compounds were then added to quadruplicate wells in the 384-well cell plates and incubated at 37° C. and 5% CO2. After 4 d, relative numbers of viable cells were measured by luminescence using Cell Titer-Glo (Promega) according to the manufacturer's instructions and read on a Wallac Multilabel Reader (Perkin-Elmer). EC50 values were calculated using Prism 6.0 software (GraphPad).

[2] = Homo sapiens, Table 3A, geometric mean
[3] = Table 3A, EC50 potency ratio, p value (Student t-Test) given
[4] = Table 2B comparator compounds, first value of cell (ADP-Glo)
[5] = read-out: P-PRAS40 SW48(parental) EC50 (μM)
[6] = Table 2B comparator compounds, first value of cell (ADP-Glo), read-out: PI3Kα Ki
[7] = Homo sapiens, Table 3B comparator compounds

Chain of PI3Kδ (O00329 whole entry): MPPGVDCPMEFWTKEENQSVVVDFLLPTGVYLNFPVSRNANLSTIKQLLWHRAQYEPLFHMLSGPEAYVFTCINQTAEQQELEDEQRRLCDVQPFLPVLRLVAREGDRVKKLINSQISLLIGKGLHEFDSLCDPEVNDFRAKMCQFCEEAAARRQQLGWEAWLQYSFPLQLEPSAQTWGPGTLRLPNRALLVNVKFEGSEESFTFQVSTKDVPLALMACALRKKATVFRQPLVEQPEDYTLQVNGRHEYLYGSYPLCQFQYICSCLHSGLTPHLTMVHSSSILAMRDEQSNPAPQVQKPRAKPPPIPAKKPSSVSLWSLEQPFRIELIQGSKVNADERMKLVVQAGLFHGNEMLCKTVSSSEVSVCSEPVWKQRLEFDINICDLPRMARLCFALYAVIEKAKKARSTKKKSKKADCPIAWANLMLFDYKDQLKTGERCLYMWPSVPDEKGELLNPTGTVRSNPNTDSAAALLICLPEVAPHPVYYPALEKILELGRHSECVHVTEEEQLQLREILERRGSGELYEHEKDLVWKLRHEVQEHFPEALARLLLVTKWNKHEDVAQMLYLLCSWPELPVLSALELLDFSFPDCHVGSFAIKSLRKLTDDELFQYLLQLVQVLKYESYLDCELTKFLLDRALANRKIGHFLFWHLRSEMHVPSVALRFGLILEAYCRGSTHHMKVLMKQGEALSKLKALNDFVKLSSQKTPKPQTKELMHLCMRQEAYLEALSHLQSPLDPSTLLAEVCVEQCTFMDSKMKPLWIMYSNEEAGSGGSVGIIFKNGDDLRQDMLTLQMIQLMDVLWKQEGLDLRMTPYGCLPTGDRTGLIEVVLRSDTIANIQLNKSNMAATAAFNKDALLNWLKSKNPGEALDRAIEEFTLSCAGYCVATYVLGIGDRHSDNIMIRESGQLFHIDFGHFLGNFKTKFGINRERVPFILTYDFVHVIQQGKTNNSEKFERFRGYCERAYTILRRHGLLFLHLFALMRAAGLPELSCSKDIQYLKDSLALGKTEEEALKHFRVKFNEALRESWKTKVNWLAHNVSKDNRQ
Chain of PI3Kδ (P27986 whole entry partner): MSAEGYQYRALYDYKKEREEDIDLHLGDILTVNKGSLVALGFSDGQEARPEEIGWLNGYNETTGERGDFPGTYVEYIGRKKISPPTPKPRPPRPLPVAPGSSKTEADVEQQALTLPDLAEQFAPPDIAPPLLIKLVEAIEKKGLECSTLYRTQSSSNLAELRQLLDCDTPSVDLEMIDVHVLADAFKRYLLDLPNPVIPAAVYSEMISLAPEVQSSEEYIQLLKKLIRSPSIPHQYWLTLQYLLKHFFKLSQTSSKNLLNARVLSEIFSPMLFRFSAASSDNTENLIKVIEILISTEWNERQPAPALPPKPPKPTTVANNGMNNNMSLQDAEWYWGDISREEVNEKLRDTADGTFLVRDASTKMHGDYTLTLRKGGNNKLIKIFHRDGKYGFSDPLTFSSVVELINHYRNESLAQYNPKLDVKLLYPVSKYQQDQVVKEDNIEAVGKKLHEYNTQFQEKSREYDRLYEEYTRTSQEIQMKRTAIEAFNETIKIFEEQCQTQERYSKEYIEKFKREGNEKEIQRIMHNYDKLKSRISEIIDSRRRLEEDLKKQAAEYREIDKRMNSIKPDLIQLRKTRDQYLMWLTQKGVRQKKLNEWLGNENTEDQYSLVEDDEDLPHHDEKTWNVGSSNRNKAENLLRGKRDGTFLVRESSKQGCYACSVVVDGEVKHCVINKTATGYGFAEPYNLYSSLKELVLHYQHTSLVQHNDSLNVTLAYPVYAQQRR
Chain of PI3Kα (P42336 whole entry, canonical isoform): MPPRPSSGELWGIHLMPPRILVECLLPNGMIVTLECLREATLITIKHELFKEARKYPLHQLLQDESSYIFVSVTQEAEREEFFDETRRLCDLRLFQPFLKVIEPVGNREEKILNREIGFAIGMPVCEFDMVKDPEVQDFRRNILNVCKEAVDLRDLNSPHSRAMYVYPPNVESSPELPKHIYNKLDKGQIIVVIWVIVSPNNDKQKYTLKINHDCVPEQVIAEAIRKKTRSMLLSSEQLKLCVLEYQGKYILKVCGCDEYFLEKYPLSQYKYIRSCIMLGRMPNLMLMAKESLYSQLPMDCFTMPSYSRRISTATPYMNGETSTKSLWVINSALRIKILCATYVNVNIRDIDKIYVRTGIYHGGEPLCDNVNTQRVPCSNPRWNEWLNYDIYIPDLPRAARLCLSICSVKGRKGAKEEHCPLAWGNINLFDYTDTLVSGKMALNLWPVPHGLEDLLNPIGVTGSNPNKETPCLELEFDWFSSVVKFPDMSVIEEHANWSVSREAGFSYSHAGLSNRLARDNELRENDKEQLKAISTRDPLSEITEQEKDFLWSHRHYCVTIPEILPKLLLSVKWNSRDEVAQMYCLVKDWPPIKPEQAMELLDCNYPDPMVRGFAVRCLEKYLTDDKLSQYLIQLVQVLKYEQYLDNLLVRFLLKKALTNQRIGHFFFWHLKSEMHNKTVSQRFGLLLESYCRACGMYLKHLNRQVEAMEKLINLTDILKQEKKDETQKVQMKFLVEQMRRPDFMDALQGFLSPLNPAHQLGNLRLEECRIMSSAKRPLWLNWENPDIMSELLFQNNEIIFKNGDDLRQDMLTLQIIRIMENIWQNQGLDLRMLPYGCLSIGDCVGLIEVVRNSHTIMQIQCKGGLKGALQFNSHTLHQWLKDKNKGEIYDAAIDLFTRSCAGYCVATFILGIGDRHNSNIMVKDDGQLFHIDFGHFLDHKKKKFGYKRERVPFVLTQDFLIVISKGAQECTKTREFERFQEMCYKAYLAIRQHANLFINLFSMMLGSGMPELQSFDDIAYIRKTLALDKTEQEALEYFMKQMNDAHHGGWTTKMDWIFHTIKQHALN
Chain of PI3Kα (P27986 whole entry partner, canonical isoform): as the sequence (P27986 whole entry partner) above
Chain of PI3Kγ (P48736 whole entry): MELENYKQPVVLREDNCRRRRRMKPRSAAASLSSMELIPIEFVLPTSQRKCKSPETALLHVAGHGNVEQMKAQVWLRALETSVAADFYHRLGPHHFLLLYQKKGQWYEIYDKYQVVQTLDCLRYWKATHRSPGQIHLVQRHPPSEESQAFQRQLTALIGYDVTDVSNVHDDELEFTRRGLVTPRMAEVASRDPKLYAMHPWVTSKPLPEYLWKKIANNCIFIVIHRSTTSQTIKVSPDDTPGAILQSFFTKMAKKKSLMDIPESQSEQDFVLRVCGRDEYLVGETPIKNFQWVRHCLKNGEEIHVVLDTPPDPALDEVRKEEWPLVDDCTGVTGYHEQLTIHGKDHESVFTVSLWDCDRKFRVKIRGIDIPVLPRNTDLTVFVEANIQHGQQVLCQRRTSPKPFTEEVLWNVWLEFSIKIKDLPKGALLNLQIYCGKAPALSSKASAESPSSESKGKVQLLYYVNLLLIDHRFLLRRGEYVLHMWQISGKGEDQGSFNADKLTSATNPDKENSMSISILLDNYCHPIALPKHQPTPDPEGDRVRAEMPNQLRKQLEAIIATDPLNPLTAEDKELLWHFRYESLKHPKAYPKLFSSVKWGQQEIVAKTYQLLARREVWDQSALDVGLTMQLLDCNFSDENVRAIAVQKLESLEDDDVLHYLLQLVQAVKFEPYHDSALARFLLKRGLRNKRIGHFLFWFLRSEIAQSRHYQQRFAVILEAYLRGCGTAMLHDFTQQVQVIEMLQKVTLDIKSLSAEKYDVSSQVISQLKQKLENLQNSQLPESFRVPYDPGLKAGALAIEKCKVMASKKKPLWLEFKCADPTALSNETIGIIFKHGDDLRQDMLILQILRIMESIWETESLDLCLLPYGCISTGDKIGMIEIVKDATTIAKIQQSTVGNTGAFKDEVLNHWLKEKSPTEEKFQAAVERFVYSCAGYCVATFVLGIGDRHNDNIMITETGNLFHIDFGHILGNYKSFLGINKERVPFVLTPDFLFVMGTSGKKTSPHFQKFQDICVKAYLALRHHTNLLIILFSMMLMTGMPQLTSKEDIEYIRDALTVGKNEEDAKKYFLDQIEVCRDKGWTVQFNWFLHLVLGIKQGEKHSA
Chain of PI3Kβ (P42338 whole entry): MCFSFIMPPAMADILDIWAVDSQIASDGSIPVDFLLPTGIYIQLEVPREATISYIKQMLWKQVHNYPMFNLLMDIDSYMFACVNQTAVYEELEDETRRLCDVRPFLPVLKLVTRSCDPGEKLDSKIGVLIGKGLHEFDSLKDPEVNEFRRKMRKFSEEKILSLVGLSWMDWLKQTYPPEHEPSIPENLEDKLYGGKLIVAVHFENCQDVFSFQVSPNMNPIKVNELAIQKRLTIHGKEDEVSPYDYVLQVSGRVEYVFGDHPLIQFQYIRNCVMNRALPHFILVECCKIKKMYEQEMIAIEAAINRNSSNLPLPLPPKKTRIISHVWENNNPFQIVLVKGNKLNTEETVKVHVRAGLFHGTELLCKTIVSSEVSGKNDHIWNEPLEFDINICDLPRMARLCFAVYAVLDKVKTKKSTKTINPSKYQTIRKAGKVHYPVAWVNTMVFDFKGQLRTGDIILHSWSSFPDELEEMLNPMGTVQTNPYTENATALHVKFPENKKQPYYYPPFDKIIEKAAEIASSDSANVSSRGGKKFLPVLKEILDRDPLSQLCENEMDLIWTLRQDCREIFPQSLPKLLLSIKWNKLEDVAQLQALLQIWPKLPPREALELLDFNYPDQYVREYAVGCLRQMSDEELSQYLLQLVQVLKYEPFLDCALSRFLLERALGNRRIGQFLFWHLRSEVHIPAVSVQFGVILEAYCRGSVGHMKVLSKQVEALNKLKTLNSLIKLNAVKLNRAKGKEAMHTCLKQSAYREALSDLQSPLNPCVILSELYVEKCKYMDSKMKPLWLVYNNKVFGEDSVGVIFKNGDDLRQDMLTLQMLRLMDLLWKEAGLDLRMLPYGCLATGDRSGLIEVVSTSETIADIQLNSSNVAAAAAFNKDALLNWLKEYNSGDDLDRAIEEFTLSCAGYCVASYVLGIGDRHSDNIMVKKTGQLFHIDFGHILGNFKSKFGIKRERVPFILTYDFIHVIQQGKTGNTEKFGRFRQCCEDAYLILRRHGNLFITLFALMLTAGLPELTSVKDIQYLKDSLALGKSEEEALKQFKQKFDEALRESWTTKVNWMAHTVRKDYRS
Chain of PI3Kβ (P27986 whole entry partner): as the sequence (P27986 whole entry partner) above

C[C@H](Oc1ccc2c(c1)OCCn1cc(N3C(=O)OC[C@H]3CF)nc1-2)C(N)=O [Compound 109, (S)-2-((2-((S)-4-(Fluoromethyl)-2-oxooxazolidin-3-yl)-5,6-dihydrobenzo[f]imidazo[1,2-d][1,4]oxazepin-9-yl)oxy)propanamide]
Selectivity for PI3Kα vs. PI3K-β (PI3Kα): 379 | Selectivity for PI3Kα vs. PI3Kγ (PI3Kα): 127 | Selectivity for PI3Kα vs. PI3Kδ (PI3Kα): 31 | pKi (PI3Kα; Table 2A, first value of cell (ADP-Glo, Example 901), read-out: PI3Kα Ki): 9.00 | pKi (PI3Kβ): 6.42 | pKi (PI3Kδ; Table 2A, first value of cell (ADP-Glo, Example 901)): 7.52 | pKi (PI3Kγ): 6.90 | pEC50 (P-PRAS40 SW48(E545K); [2]): 7.48 | Fold Selectivity for SW48(E545K) vs. SW48(parental) (P-PRAS40 SW48(E545K); [3]): 2.2 (p = 0.002) | pEC50 (P-PRAS40 SW48(H1047R); [2]): 7.55 | Fold Selectivity for SW48(H1047R) vs. SW48(parental) (P-PRAS40 SW48(H1047R); [3]): 2.6 (p < 0.001) | EC50 (P-PRAS40 SW48(parental); read-out: P-PRAS40 SW48(parental) EC50 (nM)): 74 nM

CC(C)n1ncnc1-c1cn2c(n1)-c1ccc(N3CCC[C@H]3C(N)=O)cc1OCC2 [Compound 375, reference compound]
pKi (PI3Kα): 10.80 | pKi (PI3Kδ; [4]): 9.45 | Fold Selectivity for SW48(E545K) vs. SW48(parental) (P-PRAS40 SW48(E545K)): 1.4 (p = 0.23) | EC50 (P-PRAS40 SW48(E545K); Homo sapiens, SW48, 24 h, read-out: P-PRAS40 SW48(E545K) EC50 (μM)): 0.0011 µM | Fold Selectivity for SW48(H1047R) vs. SW48(parental) (P-PRAS40 SW48(H1047R)): 1.5 (p = 0.20) | EC50 (P-PRAS40 SW48(H1047R); Homo sapiens, SW48, 24 h, read-out: P-PRAS40 SW48(H1047R) EC50 (μM)): 0.001 µM | EC50 (P-PRAS40 SW48(parental); [5]): 1.6 nM

CC(C)n1ncnc1-c1cn2c(n1)-c1ccc(O[C@@H](C)C(N)=O)cc1OCC2 [Compound 436, reference compound]
pKi (PI3Kδ; [4]): 8.11 | EC50 [1]: 0.05 µM

NC(=O)[C@@H]1CCCN1c1ccc2c(c1)OCCn1cc(-c3ncnn3CC(F)(F)F)nc1-2 [Compound 469, reference compound]
pKi (PI3Kα; [6]): 10.60 | Selectivity for PI3Kα vs. PI3Kδ (PI3Kα; Table 2B comparator compounds, selectivity ratio (fold)): 17 | pKi (PI3Kδ; [4]): 9.37 | pEC50 (P-PRAS40 SW48(E545K); [7]): 9.10 | Fold Selectivity for SW48(E545K) vs. SW48(parental) (P-PRAS40 SW48(E545K); Table 3B, EC50 potency ratio): 1.8 (p = 0.04) | pEC50 (P-PRAS40 SW48(H1047R); [7]): 9.05 | Fold Selectivity for SW48(H1047R) vs. SW48(parental) (P-PRAS40 SW48(H1047R); Table 3B, EC50 potency ratio): 1.6 (p = 0.11) | EC50 (P-PRAS40 SW48(parental); [5]): 1 nM

C[C@H](Oc1ccc2c(c1)OCCn1cc(-c3ncnn3CC(F)(F)F)nc1-2)C(N)=O [Compound 486, reference compound]
pKi (PI3Kα; [6]): 9.73 | pKi (PI3Kδ; [4]): 8.60 | pEC50 (P-PRAS40 SW48(E545K); [7]): 8.26 | Fold Selectivity for SW48(E545K) vs. SW48(parental) (P-PRAS40 SW48(E545K); Table 3B, EC50 potency ratio): 1.1 (p = 0.44) | pEC50 (P-PRAS40 SW48(H1047R); [7]): 8.23 | Fold Selectivity for SW48(H1047R) vs. SW48(parental) (P-PRAS40 SW48(H1047R); Table 3B, EC50 potency ratio): 1.0 (p = 0.74) | EC50 (P-PRAS40 SW48(parental); [5]): 6.2 nM

C[C@H](Oc1ccc2c(c1)OCCn1cc(-c3ncnn3C)nc1-2)C(N)=O [Compound 540, reference compound]
pKi (PI3Kδ; [4]): 7.62 | pEC50 (P-PRAS40 SW48(E545K); [7]): 6.77 | pEC50 (P-PRAS40 SW48(H1047R); [7]): 6.74 | EC50 (P-PRAS40 SW48(parental); [5]): 381 nM

CCn1ncnc1-c1cn2c(n1)-c1ccc(O[C@@H](C)C(N)=O)cc1OCC2 [Compound 544, reference compound]
pKi (PI3Kδ; [4]): 7.95 | pEC50 (P-PRAS40 SW48(E545K); [7]): 7.80 | pEC50 (P-PRAS40 SW48(H1047R); [7]): 7.74 | EC50 (P-PRAS40 SW48(parental); [5]): 47.7 nM
